Reference: US4499083A, “3-O-Demethyl derivatives of the istamycin B series of compounds” (Zaidan Hojin Biseibutsu Kagaku Kenkyu Kai, priority 1980, dated 1985)
Values after ≈ are worked out from the molar mass of the structure shown. Where two headings read alike, the source gives them in different places.

Key:
Assay type in all cases: cell-based
[1] = test system: Micrococcus flavus FDA 16; experiment: Antibacterial spectrum, MIC by serial dilution on nutrient agar; settings: FDA16, 37° C., 17 hours, read-out: Minimum inhibitory concentration
[2] = test system: Pseudomonas aeruginosa ROS 134/PU21; experiment: as above; settings: ROS134/PU21, 17 h, read-out: Minimum inhibitory concentration
[3] = test system: Escherichia coli JR66/W677; experiment: as above; settings: JR66/W677, 17 h, read-out: Minimum inhibitory concentration
[4] = test system: Escherichia coli W677; experiment: as above; settings: read-out: Minimum inhibitory concentration
[5] = test system: Mycobacterium smegmatis ATCC 607; experiment: as above; settings: Mycolicibacterium smegmatis, read-out: Minimum inhibitory concentration
[6] = test system: Escherichia coli NIHJ; experiment: as above; settings: read-out: Minimum inhibitory concentration
[7] = test system: Escherichia coli K-12 J5R11-2; experiment: as above; settings: read-out: Minimum inhibitory concentration
[8] = test system: Escherichia coli K-12 R388; experiment: as above; settings: K12R388, 17 h, read-out: Minimum inhibitory concentration
[9] = test system: Providencia sp. 2991; experiment: as above; settings: 37° C., 17 hours, read-out: Minimum inhibitory concentration
[10] = test system: Sarcina lutea PCI 1001; experiment: as above; settings: Micrococcus luteus, PCI1001, 37° C., 17 hours, read-out: Minimum inhibitory concentration
[11] = test system: Staphylococcus aureus Ap01; experiment: as above; settings: 37° C., 17 hours, read-out: Minimum inhibitory concentration
[12] = test system: Pseudomonas aeruginosa TI-13; experiment: as above; settings: TI13, 37° C., 17 hours, read-out: Minimum inhibitory concentration
[13] = test system: Corynebacterium bovis 1810; experiment: as above; settings: read-out: Minimum inhibitory concentration
[14] = test system: Klebsiella pneumoniae PCI602; experiment: as above; settings: 37° C., 17 hours, read-out: Minimum inhibitory concentration
[15] = test system: Bacillus anthracis; experiment: microbe, parasite or virus in culture; settings: 17 h, read-out: Minimum inhibitory concentration
[16] = test system: Providencia sp. Pv16; experiment: Antibacterial spectrum, MIC by serial dilution on nutrient agar; settings: 37° C., 17 hours, read-out: Minimum inhibitory concentration
[17] = test system: Staphylococcus epidermidis 109; experiment: as above; settings: 37° C., 17 hours, read-out: Minimum inhibitory concentration
[18] = test system: Pseudomonas aeruginosa 21-75; experiment: as above; settings: 2175, 37° C., 17 hours, read-out: Minimum inhibitory concentration
[19] = test system: Serratia sp. SOU; experiment: as above; settings: 37° C., 17 hours, read-out: Minimum inhibitory concentration
[20] = test system: Escherichia coli K-12 LA290 R55; experiment: as above; settings: K12LA290R55, 17 h, read-out: Minimum inhibitory concentration
[21] = test system: Escherichia coli K-12 R5; experiment: as above; settings: K12R5, 17 h, read-out: Minimum inhibitory concentration
[22] = test system: Escherichia coli K-12 ML1410; experiment: as above; settings: read-out: Minimum inhibitory concentration
[23] = test system: Staphylococcus aureus Smith; experiment: as above; settings: read-out: Minimum inhibitory concentration
[24] = test system: Salmonella typhi T-63; experiment: as above; settings: Salmonella enterica, 17 h, read-out: Minimum inhibitory concentration
[25] = test system: Escherichia coli K-12; experiment: as above; settings: K12, 37° C., 17 hours, read-out: Minimum inhibitory concentration
[26] = test system: Proteus rettgeri GN466; experiment: as above; settings: Providencia rettgeri, read-out: Minimum inhibitory concentration
[27] = test system: Bacillus cereus ATCC 10702; experiment: as above; settings: read-out: Minimum inhibitory concentration
[28] = test system: Proteus vulgaris OX19; experiment: as above; settings: 37° C., 17 hours, read-out: Minimum inhibitory concentration
[29] = test system: Proteus rettgeri GN311; experiment: as above; settings: Providencia rettgeri, 37° C., 17 hours, read-out: Minimum inhibitory concentration
[30] = test system: Pseudomonas aeruginosa No. 12; experiment: as above; settings: 37° C., 17 hours, read-out: Minimum inhibitory concentration
[31] = test system: Escherichia coli K-12 LA290 R56; experiment: as above; settings: K12LA290R56, 17 h, read-out: Minimum inhibitory concentration
[32] = test system: Staphylococcus aureus FDA 209P; experiment: as above; settings: FDA209P, 37° C., 17 hours, read-out: Minimum inhibitory concentration
[33] = test system: Salmonella enteritidis 1891; experiment: as above; settings: Salmonella enterica, 37° C., 17 hours, read-out: Minimum inhibitory concentration
[34] = test system: Pseudomonas aeruginosa H9; experiment: as above; settings: 37° C., 17 hours, read-out: Minimum inhibitory concentration
[35] = test system: Escherichia coli JR255; experiment: as above; settings: read-out: Minimum inhibitory concentration
[36] = test system: Pseudomonas aeruginosa 99; experiment: as above; settings: 37° C., 17 hours, read-out: Minimum inhibitory concentration
[37] = test system: Pseudomonas aeruginosa A3; experiment: as above; settings: 37° C., 17 hours, read-out: Minimum inhibitory concentration
[38] = test system: Escherichia coli K-12 LA290 R64; experiment: as above; settings: K12LA290R64, 17 h, read-out: Minimum inhibitory concentration
[39] = Escherichia coli W677, nutrient agar, 37° C., 17 hours
[40] = ATCC607, Mycobacterium smegmatis ATCC 607, nutrient agar, 37° C., 17 hours
[41] = Escherichia coli NIHJ, nutrient agar, 37° C., 17 hours
[42] = K12J5R112, Escherichia coli K-12 J5R11-2, nutrient agar, 37° C., 17 hours
[43] = Corynebacterium bovis 1810, nutrient agar, 37° C., 17 hours
[44] = Escherichia coli, K12ML1410, 17 h
[45] = Staphylococcus aureus Smith, nutrient agar, 37° C., 17 hours
[46] = ATCC10702, Bacillus cereus ATCC 10702, nutrient agar, 37° C., 17 hours
[47] = Escherichia coli JR255, nutrient agar, 37° C., 17 hours

| SMILES | MIC [1] [µg/mL] | MIC [2] [µg/mL] | MIC [3] [µg/mL] | MIC [8] [µg/mL] | MIC [9] [µg/mL] | MIC [10] [µg/mL] | MIC [11] [µg/mL] | MIC [12] [µg/mL] | MIC [14] [µg/mL] | MIC [15] [µg/mL] | MIC [16] [µg/mL] | MIC [17] [µg/mL] | MIC [18] [µg/mL] | MIC [19] [µg/mL] | MIC [20] [µg/mL] | MIC [21] [µg/mL] | MIC [24] [µg/mL] | MIC [25] [µg/mL] | MIC [28] [µg/mL] | MIC [29] [µg/mL] | further results |
| --- | --- | --- | --- | --- | --- | --- | --- | --- | --- | --- | --- | --- | --- | --- | --- | --- | --- | --- | --- | --- | --- |
| CNCC1CCC(N)C(OC2C(N)CC(O)C(N(C)C(=O)CNC=N)C2O)O1 (stereo not drawn) [3-O-Demethyl-2"-N-formimidoylistamycin B] | < 0.2 | 50 (≈ 124 µM) | 3.13 (≈ 7.78 µM) | 1.56 (≈ 3.88 µM) | 12.5 (≈ 31.1 µM) | < 0.2 | 0.78 (≈ 1.94 µM) | 6.25 (≈ 15.5 µM) | 1.56 (≈ 3.88 µM) | < 0.2 | 25 (≈ 62.1 µM) | 0.78 (≈ 1.94 µM) | 25 (≈ 62.1 µM) | > 100 | 1.56 (≈ 3.88 µM) | 3.13 (≈ 7.78 µM) | 0.78 (≈ 1.94 µM) | 1.56 (≈ 3.88 µM) | 0.39 (≈ 0.969 µM) | 12.5 (≈ 31.1 µM) | MIC [4, 39]: 0.78 µg/mL (≈ 1.94 µM); MIC [5, 40]: < 0.2 µg/mL; MIC [6, 41]: 1.56 µg/mL (≈ 3.88 µM); MIC [7, 42]: 1.56 µg/mL (≈ 3.88 µM); MIC [13, 43]: 0.78 µg/mL (≈ 1.94 µM); MIC [22, 44]: 3.13 µg/mL (≈ 7.78 µM); MIC [23, 45]: < 0.2 µg/mL; MIC ([26]; GN466, 17 h): 3.13 µg/mL (≈ 7.78 µM); MIC [27, 46]: 1.56 µg/mL (≈ 3.88 µM); MIC [30]: 12.5 µg/mL (≈ 31.1 µM); MIC [31]: 1.56 µg/mL (≈ 3.88 µM); MIC [32]: 0.2 µg/mL (≈ 0.497 µM); MIC [33]: 1.56 µg/mL (≈ 3.88 µM); MIC [34]: 12.5 µg/mL (≈ 31.1 µM); MIC [35, 47]: 0.78 µg/mL (≈ 1.94 µM); MIC [36]: 100 µg/mL (≈ 248 µM); MIC [37]: 1.56 µg/mL (≈ 3.88 µM); MIC [38]: 1.56 µg/mL (≈ 3.88 µM) |
| CNCC1CCC(N)C(OC2C(N)CC(O)C(N(C)C(=O)CN)C2O)O1 (stereo not drawn) [3-O-Demethylistamycin B] | 3.13 (≈ 8.34 µM) | 50 (≈ 133 µM) | 6.25 (≈ 16.6 µM) | 1.56 (≈ 4.15 µM) | 12.5 (≈ 33.3 µM) | 0.39 (≈ 1.04 µM) | 0.78 (≈ 2.08 µM) | 12.5 (≈ 33.3 µM) | 3.13 (≈ 8.34 µM) | < 0.2 | 25 (≈ 66.6 µM) | 0.78 (≈ 2.08 µM) | 50 (≈ 133 µM) | 25 (≈ 66.6 µM) | 6.25 (≈ 16.6 µM) | 6.25 (≈ 16.6 µM) | 1.56 (≈ 4.15 µM) | 3.13 (≈ 8.34 µM) | 0.78 (≈ 2.08 µM) | 12.5 (≈ 33.3 µM) | MIC ([4]; Escherichia coli, W677, 17 h): 1.56 µg/mL (≈ 4.15 µM); MIC ([5]; ATCC607, 17 h): < 0.2 µg/mL; MIC ([6]; Escherichia coli, 17 h): 1.56 µg/mL (≈ 4.15 µM); MIC ([7]; Escherichia coli, K12J5R112, 17 h): 1.56 µg/mL (≈ 4.15 µM); MIC ([13]; Corynebacterium bovis, 1810, 17 h): 1.56 µg/mL (≈ 4.15 µM); MIC ([22]; K12ML1410, Escherichia coli K-12 ML1410, nutrient agar, 37° C., 17 hours): 3.13 µg/mL (≈ 8.34 µM); MIC ([23]; Staphylococcus aureus, 17 h): < 0.2 µg/mL; MIC ([26]; GN466, 17 h): 6.25 µg/mL (≈ 16.6 µM); MIC ([27]; Bacillus cereus, ATCC10702, 17 h): 1.56 µg/mL (≈ 4.15 µM); MIC [30]: 12.5 µg/mL (≈ 33.3 µM); MIC [31]: 3.13 µg/mL (≈ 8.34 µM); MIC [32]: 0.39 µg/mL (≈ 1.04 µM); MIC [33]: 3.13 µg/mL (≈ 8.34 µM); MIC [34]: 25 µg/mL (≈ 66.6 µM); MIC ([35]; Escherichia coli, JR255, 17 h): 1.56 µg/mL (≈ 4.15 µM); MIC [36]: 25 µg/mL (≈ 66.6 µM); MIC [37]: 3.13 µg/mL (≈ 8.34 µM); MIC [38]: 3.13 µg/mL (≈ 8.34 µM) |
| CNCC1CCC(N)C(OC2C(N)CC(OC)C(N(C)C(=O)CN)C2O)O1 (stereo not drawn) [Istamycin B, istamycin B] | 6.25 (≈ 16 µM) | > 100 | 3.13 (≈ 8.04 µM) | 1.56 (≈ 4.01 µM) | 6.25 (≈ 16 µM) | 0.2 (≈ 0.513 µM) | 0.78 (≈ 2 µM) | 25 (≈ 64.2 µM) | 1.56 (≈ 4.01 µM) | < 0.2 | 6.25 (≈ 16 µM) | 0.78 (≈ 2 µM) | 100 (≈ 257 µM) | 100 (≈ 257 µM) | 3.13 (≈ 8.04 µM) | 3.13 (≈ 8.04 µM) | 0.39 (≈ 1 µM) | 1.56 (≈ 4.01 µM) | 0.39 (≈ 1 µM) | 12.5 (≈ 32.1 µM) | MIC [4, 39]: 1.56 µg/mL (≈ 4.01 µM); MIC [5, 40]: 0.78 µg/mL (≈ 2 µM); MIC [6, 41]: 1.56 µg/mL (≈ 4.01 µM); MIC [7, 42]: 1.56 µg/mL (≈ 4.01 µM); MIC [13, 43]: 0.78 µg/mL (≈ 2 µM); MIC [22, 44]: 3.13 µg/mL (≈ 8.04 µM); MIC [23, 45]: < 0.2 µg/mL; MIC ([26]; Proteus rettgeri GN466, nutrient agar, 37° C., 17 hours): 6.25 µg/mL (≈ 16 µM); MIC [27, 46]: 1.56 µg/mL (≈ 4.01 µM); MIC [30]: 100 µg/mL (≈ 257 µM); MIC [31]: 1.56 µg/mL (≈ 4.01 µM); MIC [32]: 0.39 µg/mL (≈ 1 µM); MIC [33]: 1.56 µg/mL (≈ 4.01 µM); MIC [34]: 50 µg/mL (≈ 128 µM); MIC [35, 47]: 0.78 µg/mL (≈ 2 µM); MIC [36]: > 100 µg/mL; MIC [37]: 6.25 µg/mL (≈ 16 µM); MIC [38]: 1.56 µg/mL (≈ 4.01 µM) |
